Where two headings read alike, the source gives them in different places.
Legend:
Format in all cases: cell-based
[1] = test system: Leishmania donovani axenic amastigote; assay: In vitro assay for growth inhibition of Leishmania donovani axenic amastigote (Cell TiterGlo luminescence); details: Leishmania donovani, L. donovani axenic amastigotes in vitro; read-out: L. donovani amastigotes EC50
Procedure, shortened: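 Compound-treated wells received 9600 axenic amastigotes in RPMI 1640-based medium at pH 5.5 (37 °C, 5% CO2). Growth measured as ATP luminescence (CellTiter-Glo) after 2-day incubation; DMSO and reference compounds served as controls.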

[2] = test system: L. donovani HU3 strain in mouse peritoneal macrophages; assay: Assay for inhibition of parasitemia of Leishmania donovani in mouse macrophages (SYBR Green nuclei count, high-content imaging); details: Leishmania donovani, Peritoneal macrophage, read-out: L. donovani in Mouse Macrophages EC50
Procedure, shortened: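 Parasite numbers were counted from SYBR Green-stained nuclei imaged by high-content microscopy after paraformaldehyde fixation and Triton permeabilization. Before this, compound was applied for 5 days at 37° C to BALB/c peritoneal macrophages (2×10^4/well) that had been exposed 24 h to 4×10^5 L. donovani HU3 amastigotes harvested from infected mouse spleens.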

[3] = test system: Trypanosoma cruzi amastigotes cultured in 3T3 fibroblast cells; assay: Assay for growth inhibition of kinetoplastid parasite Trypanosoma cruzi (beta-galactosidase Tulahuen strain, CPRG readout); details: Trypanosoma cruzi, T. cruzi amastigotes in 3T3 fibroblast cells, read-out: Buckner infectious T. cruzi EC50
Procedure, shortened: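 3T3 fibroblasts (1,000 cells/well) plated overnight, treated with compound in DMSO, then infected with 10,000 Lac-Z-expressing Tulahuen trypomastigotes. After 6 days, 0.6 mM CPRG with 0.6% NP-40 added for 2 h at room temperature; absorbance gives relative intracellular amastigote numbers. Benznidazole and nifurtimox serve as positive controls.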

[4] = test system: Trypanosoma brucei brucei (Lister 427) strain; assay: Assay for growth inhibition against Trypanosoma brucei brucei (Cell TiterGlo ATP luminescence); details: T. brucei brucei (Lister 427), read-out: T. Brucei (HAT) EC50
Procedure, shortened: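 Growth read-out is cellular ATP by CellTiter-Glo luminescence, measured 30 min after reagent addition, following 2-day incubation at 37 °C in CO2. Parasites (10,000/mL, HMI-9 plus 10% FBS and 10% serum plus) faced 10 threefold dilutions in duplicate; IC50 taken as 50% growth inhibition versus untreated.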

[5] = L. donovani in mouse peritoneal macrophages

Row | Compound | EC50 [1] | EC50 [2, 5] | EC50 ([3]; Fibroblast) | EC50 ([4]; Trypanosoma brucei) | EC50 [4] | EC50 [2] | EC50 [3]
1 | O=C(Nc1ccc(F)c(-n2cc3cc(-c4ccccn4)cnc3n2)c1)N1CC(F)C1 [Compound 28, 3-fluoro-N-{4-fluoro-3-[5-(pyridin-2-yl)-2H-pyrazolo[3,4-b]pyridin-2-yl]phenyl}azetidine-1-carboxamide] | 0.0013 µM | 0.002 µM | 0.001 µM | < 0.023 µM |  |  | 
2 | CCC(C)c1cnc2nn(-c3cc(NC(=O)N4CC[C@@H](F)C4)ccc3F)cc2c1 (stereo partly drawn) [Compound 50, (3R)-N-{3-[5-(butan-2-yl)-2H-pyrazolo[3,4-b]pyridin-2-yl]-4-fluorophenyl}-3-fluoropyrrolidine-1-carboxamide] | 0.078 µM | 0.1 µM | 0.079 µM | < 0.023 µM |  |  | 
3 | Cc1nc(C)c(C(=O)Nc2ccc(F)c(-n3cc4cc(N5CCC5)cnc4n3)c2)o1 [Compound 155, N-{3-[5-(azetidin-1-yl)-2H-pyrazolo[3,4-b]pyridin-2-yl]-4-fluorophenyl}-2,4-dimethyl-1,3-oxazole-5-carboxamide] | 0.053 µM | 0.022 µM | 0.018 µM | < 0.023 µM |  |  | 
4 | O=C(Nc1ccc(F)c(-n2cc3cc(N4CC(C(F)(F)F)C4)cnc3n2)c1)N1CC[C@@H](F)C1 [Compound 275] | 0.003 µM | 0.003 µM | 0.001 µM | 0.001 µM |  |  | 
5 | CC(C)c1cnc2nn(-c3cc(NC(=O)c4ncc(F)cc4F)ccc3F)cc2c1 [Compound 70, 3,5-difluoro-N-{4-fluoro-3-[5-(propan-2-yl)-2H-pyrazolo[3,4-b]pyridin-2-yl]phenyl}pyridine-2-carboxamide] | 0.14 µM | 0.1 µM | 0.022 µM | 0.038 µM |  |  | 
6 | O=C(Nc1ccc(F)c(-n2cc3cc(N4C[C@@H](F)[C@H](F)C4)cnc3n2)c1)N1CC(F)C1 [Compound 234, N-(3-{5-[(3R,4R)-3,4-difluoropyrrolidin-1-yl]-2H-pyrazolo[3,4-b]pyridin-2-yl]-4-fluorophenyl)-3-fluoroazetidine-1-carboxamide] | 0.027 µM | 0.003 µM | 0.009 µM |  | 0.005 µM |  | 
7 | CC(C)Cc1cnc2nn(-c3cc(NC(=O)N4CCC4)ccc3F)cc2c1 [Compound 7, N-(4-fluoro-3-(5-isobutyl-2H-pyrazolo[3,4-b]pyridin-2-yl)phenyl)azetidine-1-carboxamide] | 0.0077 µM | 0.004 µM | 0.0016 µM | < 0.023 µM |  |  | 
8 | CCC(C)(C)c1cnc2nn(-c3cc(NC(=O)N4CC(F)C4)ccc3F)cc2c1 [Compound 24, 3-fluoro-N-{4-fluoro-3-[5-(2-methylbutan-2-yl)-2H-pyrazolo[3,4-b]pyridin-2-yl]phenyl}azetidine-1-carboxamide] | 0.88 µM | 1 µM | 0.44 µM | 0.61 µM |  |  | 
9 | O=C(Nc1ccc(F)c(-n2cc3cc(C4CCOCC4)cnc3n2)c1)N1CC(F)C1 [Compound 148, 3-fluoro-N-{4-fluoro-3-[5-(oxan-4-yl)-2H-pyrazolo[3,4-b]pyridin-2-yl]phenyl}azetidine-1-carboxamide] | 0.0081 µM | 0.012 µM | 0.014 µM | < 0.023 µM |  |  | 
10 | CCNc1cnc2nn(-c3cc(NC(=O)N4CC(F)C4)ccc3F)cc2c1 [Compound 199, N-{3-[5-(ethylamino)-2H-pyrazolo[3,4-b]pyridin-2-yl]-4-fluorophenyl}-3-fluoroazetidine-1-carboxamide] | 0.502 µM | 0.021 µM | 0.024 µM | 0.005 µM |  |  | 
11 | O=C(Nc1ccc(F)c(-n2cc3cc(Br)cnc3n2)c1)N1CC(F)(F)C1 [Compound 125, N-(3-(5-bromo-2H-pyrazolo[3,4-b]pyridin-2-yl)-4-fluorophenyl)-3,3-difluoroazetidine-1-carboxamide] | 0.044 µM |  |  | < 0.023 µM |  | 0.031 µM | 0.034 µM
12 | O=C(Nc1ccc(F)c(-n2cc3cc(-c4cnccn4)cnc3n2)c1)N1CC(F)C1 [Compound 294, 3-fluoro-N-{4-fluoro-3-[5-(pyrazin-2-yl)-2H-pyrazolo[3,4-b]pyridin-2-yl]phenyl}azetidine-1-carboxamide] | 0.004 µM | 0.004 µM | 0.005 µM | 0.005 µM |  |  | 
